Test results as given in patent US10206394B2, “Herbicidal compounds” (Syngenta Participations AG, priority 2014, dated 2019).
Read-outs that look alike come from different tables or passages of the source.

What was measured:
Assay in all cases: Glasshouse assay for herbicidal activity (pre- and post-emergence), percentage phytotoxicity
Type in all cases: in vivo
[1] = test system: Alopecurus myosuroides (ALOMY); settings: Alopecurus myosuroides, Rate 250 g/ha, 100%=total damage, 0%=no damage
Procedure: (§1) Test—Glasshouse Assay for Herbicidal Activity
(§2) Seeds of a variety of monocotyledonous and dicotyledonous test plants are sown in standard soil in pots. The plants are cultivated for one day (for pre-emergence (PRE)) or for about 12 days (for post-emergence (POST)) under controlled conditions in a glasshouse (warm climate species at 24/18° C., cool climate species at 20/16° C., both at day/night; 16 hours light; 65% humidity).
(§3) The test plants are then grown on, in a glasshouse (greenhouse) under controlled conditions (warm climate species at 24/18° C., cool climate species at 20/16° C., both at day/night; 16 hours light; 65% humidity) and are watered twice daily. 15 days after application of the test herbicide (15 DAA) (for post-emergence), and 20 days after application of the test herbicide (20 DAA) (for pre-emergence), the test plants are evaluated visually, and an assessed percentage phytotoxicity score is given for each herbicidal application on each plant species (with 100%=total damage to plant; 0%=no damage to plant).
(§4) The plant species tested are as follows: Alopecurus myosuroides (ALOMY), Avena fatua (AVEFA), Lolium perenne (LOLPE), Echinochloa crus-galli (ECHCG).

Avena fatua (AVEFA) = settings: Avena fatua, Rate 250 g/ha, 100%=total damage, 0%=no damage
Procedure: as §1, §2, §3, §4

[2] = test system: Echinochloa crus-galli (ECHCG); settings: Echinochloa crus-galli, Rate 250 g/ha, 100%=total damage, 0%=no damage
Procedure: as §1, §2, §3, §4

Lolium perenne (LOLPE) = settings: Lolium perenne, Rate 250 g/ha, 100%=total damage, 0%=no damage
Procedure: as §1, §2, §3, §4

[3] = post-emergence, 360 h, post-emergence, assessed visually 15 DAA, read-out: Post-emergence herbicidal activity (percentage phytotoxicity) ALOMY POST
[4] = pre-emergence, 480 h, pre-emergence, assessed visually 20 DAA, read-out: Pre-emergence herbicidal activity (percentage phytotoxicity) ALOMY PRE
[5] = post-emergence, 360 h, post-emergence, assessed visually 15 DAA, read-out: Post-emergence herbicidal activity (percentage phytotoxicity) AVEFA POST
[6] = pre-emergence, 480 h, pre-emergence, assessed visually 20 DAA, read-out: Pre-emergence herbicidal activity (percentage phytotoxicity) AVEFA PRE
[7] = post-emergence, 360 h, post-emergence, assessed visually 15 DAA, read-out: Post-emergence herbicidal activity (percentage phytotoxicity) ECHCG POST
[8] = pre-emergence, 480 h, pre-emergence, assessed visually 20 DAA, read-out: Pre-emergence herbicidal activity (percentage phytotoxicity) ECHCG PRE
[9] = post-emergence, 360 h, post-emergence, assessed visually 15 DAA, read-out: Post-emergence herbicidal activity (percentage phytotoxicity) LOLPE POST
[10] = pre-emergence, 480 h, pre-emergence, assessed visually 20 DAA, read-out: Pre-emergence herbicidal activity (percentage phytotoxicity) LOLPE PRE

Row | Compound | pest or weed control at 250 g/ha [1, 3] [%] | pest or weed control at 250 g/ha [1, 4] [%] | pest or weed control at 250 g/ha (Avena fatua (AVEFA); [5]) [%] | pest or weed control at 250 g/ha (Avena fatua (AVEFA); [6]) [%] | pest or weed control at 250 g/ha [2, 7] [%] | pest or weed control at 250 g/ha [2, 8] [%] | pest or weed control at 250 g/ha (Lolium perenne (LOLPE); [9]) [%] | pest or weed control at 250 g/ha (Lolium perenne (LOLPE); [10]) [%]
1 | Cc1cc(C)c(C2C(=O)CC(CC(=O)NC3CCc4ccccc43)C2=O)c(C)c1 (centres unmarked) [Compound A106] | 30 | 0 | 0 | 0 | 20 | 20 | 70 | 70
2 | Cc1cc(C)c(C2C(=O)CC(CC(=O)NCc3ncccc3Cl)C2=O)c(C)c1 (centres unmarked) [Compound A107] | 80 | 80 | 90 | 10 | 70 | 80 | 80 | 90
3 | Cc1cc(C)c(C2C(=O)CC(CC(=O)NCc3ccccc3C#N)C2=O)c(C)c1 (centres unmarked) [Compound A108] | 0 | 0 | 60 | 0 | 20 | 30 | 60 | 80
4 | Cc1cc(C)c(C2C(=O)CC(CC(=O)NCc3ncc(C(F)(F)F)cc3Cl)C2=O)c(C)c1 (centres unmarked) [Compound A109] | 90 | 90 | 80 | 50 | 80 | 80 | 80 | 90
5 | Cc1cc(C)c(C2C(=O)CC(CC(=O)NCc3ccccc3F)C2=O)c(C)c1 (centres unmarked) [Compound A110] | 60 | 70 | 70 | 50 | 80 | 90 | 80 | 100
6 | C=CCCNC(=O)CC1CC(=O)C(c2c(C)cc(-c3ncc(Cl)cc3F)cc2C)C1=O (centres unmarked) [Compound A111] | 100 | 90 | 100 | 90 | 100 | 100 | 100 | 100
7 | COCC#CC(C)(C)NC(=O)CC1CC(=O)C(c2c(C)cc(-c3ncc(Cl)cc3F)cc2C)C1=O (centres unmarked) [Compound A112] | 90 | 80 | 100 | 90 | 100 | 100 | 100 | 100
8 | Cc1cc(-c2ncc(Cl)cc2F)cc(C)c1C1C(=O)CC(CC(=O)NCc2ncc(C(F)(F)F)cc2Cl)C1=O (centres unmarked) [Compound A113] | 100 | 80 | 100 | 90 | 100 | 100 | 100 | 90
9 | Cc1cc(-c2ncc(Cl)cc2F)cc(C)c1C1C(=O)CC(CC(=O)NCc2ncccc2Cl)C1=O (centres unmarked) [Compound A114] | 100 | 90 | 100 | 90 | 100 | 100 | 100 | 90
10 | Cc1cc(-c2ncc(Cl)cc2F)cc(C)c1C1C(=O)CC(CC(=O)NCc2ccc(C(F)(F)F)nc2)C1=O (centres unmarked) [Compound A115] | 100 | 90 | 100 | 90 | 100 | 90 | 100 | 90
11 | Cc1cc(-c2ncc(Cl)cc2F)cc(C)c1C1C(=O)CC(CC(=O)NCc2ccc(Cl)nc2)C1=O (centres unmarked) [Compound A116] | 90 | 80 | 100 | 90 | 100 | 100 | 100 | 80
12 | Cc1cc(-c2ncc(Cl)cc2F)cc(C)c1C1C(=O)CC(CC(=O)NCc2cccc(Cl)c2)C1=O (centres unmarked) [Compound A117] | 90 | 70 | 100 | 70 | 100 | 100 | 100 | 90
13 | Cc1cc(-c2ncc(Cl)cc2F)cc(C)c1C1C(=O)CC(CC(=O)NCc2ccccc2F)C1=O (centres unmarked) [Compound A118] | 90 | 80 | 100 | 100 | 100 | 100 | 100 | 90
14 | Cc1cccc(CNC(=O)CC2CC(=O)C(c3c(C)cc(-c4ncc(Cl)cc4F)cc3C)C2=O)c1 (centres unmarked) [Compound A119] | 60 | 40 | 90 | 60 | 100 | 100 | 90 | 70
15 | Cc1cc(-c2ncc(Cl)cc2F)cc(C)c1C1C(=O)CC(CC(=O)NCc2cccc(C(F)(F)F)c2)C1=O (centres unmarked) [Compound A120] | 100 | 80 | 100 | 90 | 100 | 100 | 100 | 80
16 | Cc1cc(-c2ncc(Cl)cc2F)cc(C)c1C1C(=O)CC(CC(=O)NCc2ccc(OC(F)(F)F)cc2)C1=O (centres unmarked) [Compound A121] | 100 | 90 | 100 | 90 | 100 | 90 | 100 | 80
17 | Cc1cc(-c2ncc(Cl)cc2F)cc(C)c1C1C(=O)CC(CC(=O)NCc2cccc([N+](=O)[O-])c2)C1=O (centres unmarked) [Compound A122] | 90 | 70 | 100 | 0 | 100 | 90 | 70 | 20
18 | Cc1cnc(CNC(=O)CC2CC(=O)C(c3c(C)cc(-c4ncc(Cl)cc4F)cc3C)C2=O)s1 (centres unmarked) [Compound A123] | 80 | 60 | 80 | 70 | 100 | 90 | 90 | 80
19 | Cc1cc(-c2ncc(Cl)cc2F)cc(C)c1C1C(=O)CC(CC(=O)NC(C)c2ccc(F)cc2)C1=O (centres unmarked) [Compound A124] | 90 | 70 | 100 | 80 | 100 | 90 | 100 | 90
